# Test results as given in the supplement of paper PMC10307832.
# Tests used:
# Experiment in all cases: relative viability (nuclei count vs DMSO), 5 days (fraction); higher = more cells survive
# SW 900 = test system: SW 900
# Outline: (§1)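 Relative viability divides the nuclei count in treated wells by that in vehicle wells. Lung cancer cell lines were seeded in 1536-well plates, dosed by pin tool the next day, and fixed and stained after 5 days in one step with final 0.05% Triton X-100, 1% formaldehyde and 1 ug/ml Hoechst. Dosing was a single drug or a fixed anchor-drug dose plus five library-drug doses (not always all listed) in √10 steps, and values are medians of duplicate plates imaged at 4×.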
# NCI-H596 = test system: NCI-H596
# Outline: as §1
# NCI-H661 = test system: NCI-H661
# Outline: as §1
# NCI-H647 = test system: NCI-H647
# Outline: as §1
# NCI-H520 = test system: NCI-H520
# Outline: as §1
# RERF-LC-KJ = test system: RERF-LC-KJ
# Outline: as §1
# HARA = test system: HARA
# Outline: as §1
# LOU-NH91 = test system: LOU-NH91
# Outline: as §1
# CAL-12T = test system: CAL-12T
# Outline: as §1
# NCI-H2085 = test system: NCI-H2085
# Outline: as §1
# A-427 = test system: A-427
# Outline: as §1
# NCI-H2126 = test system: NCI-H2126
# Outline: as §1
# NCI-H1666 = test system: NCI-H1666
# Outline: as §1
# NCI-H1651 = test system: NCI-H1651
# Outline: as §1
# NCI-H1734 = test system: NCI-H1734
# Outline: as §1
# NCI-H1975 = test system: NCI-H1975
# Outline: as §1
# NCI-H460 = test system: NCI-H460
# Outline: as §1
# NCI-H838 = test system: NCI-H838
# Outline: as §1
# NCI-H1944 = test system: NCI-H1944
# Outline: as §1
# LCLC-103H = test system: LCLC-103H
# Outline: as §1
# BEN = test system: BEN
# Outline: as §1
# ABC-1 = test system: ABC-1
# Outline: as §1
# NCI-H727 = test system: NCI-H727
# Outline: as §1
compound,measurement,setting,value
Cc1csc(=NC2CCCCC2)n1/N=C/c1ccc(O)c(O)c1O [MIM1] + COc1cc2c(Oc3ccc(NC(=O)C4(C(=O)Nc5ccc(F)cc5)CC4)cc3F)ccnc2cc1OCCCN1CCOCC1 [Foretinib] (partner 0.25 µM),relative viability,SW 900; first compound 0.2 µM,1.17
same,relative viability,SW 900; first compound 0.6325 µM,0.864
same,relative viability,SW 900; first compound 2 µM,0.854
same,relative viability,SW 900; first compound 6.325 µM,0.917
same,relative viability,SW 900; first compound 20 µM,0.443
same,relative viability,NCI-H596; first compound 0.2 µM,0.886
same,relative viability,NCI-H596; first compound 0.6325 µM,0.741
same,relative viability,NCI-H596; first compound 2 µM,0.858
same,relative viability,NCI-H596; first compound 6.325 µM,0.848
same,relative viability,NCI-H596; first compound 20 µM,0.636
same,relative viability,NCI-H661; first compound 0.2 µM,0.933
same,relative viability,NCI-H661; first compound 0.6325 µM,1
same,relative viability,NCI-H661; first compound 2 µM,0.939
same,relative viability,NCI-H661; first compound 6.325 µM,0.75
same,relative viability,NCI-H661; first compound 20 µM,0.355
same,relative viability,NCI-H647; first compound 0.2 µM,1.16
same,relative viability,NCI-H647; first compound 0.6325 µM,1.12
same,relative viability,NCI-H647; first compound 6.325 µM,1
same,relative viability,NCI-H647; first compound 20 µM,0.703
same,relative viability,NCI-H520; first compound 0.2 µM,0.635
same,relative viability,NCI-H520; first compound 0.6325 µM,0.728
same,relative viability,NCI-H520; first compound 2 µM,0.587
same,relative viability,NCI-H520; first compound 6.325 µM,0.646
same,relative viability,NCI-H520; first compound 20 µM,0.501
same,relative viability,RERF-LC-KJ; first compound 0.2 µM,0.887
same,relative viability,RERF-LC-KJ; first compound 0.6325 µM,0.808
same,relative viability,RERF-LC-KJ; first compound 2 µM,0.803
same,relative viability,RERF-LC-KJ; first compound 6.325 µM,0.637
same,relative viability,RERF-LC-KJ; first compound 20 µM,0.24
same,relative viability,HARA; first compound 0.2 µM,0.954
same,relative viability,HARA; first compound 2 µM,0.991
same,relative viability,HARA; first compound 6.325 µM,0.868
same,relative viability,HARA; first compound 20 µM,0.131
same,relative viability,LOU-NH91; first compound 0.2 µM,0.9
same,relative viability,LOU-NH91; first compound 0.6325 µM,0.965
same,relative viability,LOU-NH91; first compound 2 µM,0.833
same,relative viability,LOU-NH91; first compound 6.325 µM,0.807
same,relative viability,LOU-NH91; first compound 20 µM,0.39
same,relative viability,CAL-12T; first compound 0.2 µM,1.03
same,relative viability,CAL-12T; first compound 0.6325 µM,1.16
same,relative viability,CAL-12T; first compound 2 µM,1.2
same,relative viability,CAL-12T; first compound 6.325 µM,0.68
same,relative viability,CAL-12T; first compound 20 µM,0.475
same,relative viability,NCI-H2085; first compound 0.2 µM,0.895
same,relative viability,NCI-H2085; first compound 0.6325 µM,1.11
same,relative viability,NCI-H2085; first compound 2 µM,1.13
same,relative viability,NCI-H2085; first compound 6.325 µM,0.935
same,relative viability,NCI-H2085; first compound 20 µM,0.843
same,relative viability,A-427; first compound 0.2 µM,1.15
same,relative viability,A-427; first compound 2 µM,1.05
same,relative viability,A-427; first compound 6.325 µM,1.07
same,relative viability,A-427; first compound 20 µM,0.25
same,relative viability,NCI-H2126; first compound 0.2 µM,1.14
same,relative viability,NCI-H2126; first compound 0.6325 µM,1.17
same,relative viability,NCI-H2126; first compound 2 µM,1.35
same,relative viability,NCI-H2126; first compound 6.325 µM,1.12
same,relative viability,NCI-H2126; first compound 20 µM,0.491
same,relative viability,NCI-H1666; first compound 0.2 µM,0.943
same,relative viability,NCI-H1666; first compound 0.6325 µM,0.962
same,relative viability,NCI-H1666; first compound 2 µM,1
same,relative viability,NCI-H1666; first compound 6.325 µM,0.724
same,relative viability,NCI-H1666; first compound 20 µM,0.597
same,relative viability,NCI-H1651; first compound 0.2 µM,0.722
same,relative viability,NCI-H1651; first compound 0.6325 µM,0.741
same,relative viability,NCI-H1651; first compound 2 µM,0.824
same,relative viability,NCI-H1651; first compound 6.325 µM,0.648
same,relative viability,NCI-H1651; first compound 20 µM,0.652
same,relative viability,NCI-H1734; first compound 0.2 µM,0.884
same,relative viability,NCI-H1734; first compound 0.6325 µM,0.886
same,relative viability,NCI-H1734; first compound 2 µM,0.772
same,relative viability,NCI-H1734; first compound 6.325 µM,0.478
same,relative viability,NCI-H1734; first compound 20 µM,0.255
same,relative viability,NCI-H1975; first compound 0.2 µM,0.905
same,relative viability,NCI-H1975; first compound 0.6325 µM,0.96
same,relative viability,NCI-H1975; first compound 2 µM,0.837
same,relative viability,NCI-H1975; first compound 6.325 µM,0.493
same,relative viability,NCI-H1975; first compound 20 µM,0.316
same,relative viability,NCI-H460; first compound 0.2 µM,0.954
same,relative viability,NCI-H460; first compound 0.6325 µM,0.987
same,relative viability,NCI-H460; first compound 2 µM,0.862
same,relative viability,NCI-H460; first compound 6.325 µM,0.493
same,relative viability,NCI-H460; first compound 20 µM,0.0555
same,relative viability,NCI-H838; first compound 0.2 µM,1.01
same,relative viability,NCI-H838; first compound 0.6325 µM,1.01
same,relative viability,NCI-H838; first compound 2 µM,0.761
same,relative viability,NCI-H838; first compound 6.325 µM,0.853
same,relative viability,NCI-H838; first compound 20 µM,0.657
same,relative viability,NCI-H1944; first compound 0.2 µM,0.908
same,relative viability,NCI-H1944; first compound 0.6325 µM,0.93
same,relative viability,NCI-H1944; first compound 2 µM,0.581
same,relative viability,NCI-H1944; first compound 6.325 µM,0.709
same,relative viability,NCI-H1944; first compound 20 µM,0.564
same,relative viability,LCLC-103H; first compound 0.2 µM,0.82
same,relative viability,LCLC-103H; first compound 0.6325 µM,0.833
same,relative viability,LCLC-103H; first compound 2 µM,0.942
same,relative viability,LCLC-103H; first compound 6.325 µM,0.545
same,relative viability,LCLC-103H; first compound 20 µM,0.364
same,relative viability,BEN; first compound 0.2 µM,0.705
same,relative viability,BEN; first compound 0.6325 µM,0.531
same,relative viability,BEN; first compound 2 µM,0.719
same,relative viability,BEN; first compound 6.325 µM,0.551
same,relative viability,BEN; first compound 20 µM,0.294
same,relative viability,ABC-1; first compound 0.2 µM,1.05
same,relative viability,ABC-1; first compound 0.6325 µM,1.12
same,relative viability,ABC-1; first compound 2 µM,0.981
same,relative viability,ABC-1; first compound 6.325 µM,0.324
same,relative viability,ABC-1; first compound 20 µM,0.328
same,relative viability,NCI-H727; first compound 0.2 µM,0.948
same,relative viability,NCI-H727; first compound 0.6325 µM,0.883
same,relative viability,NCI-H727; first compound 2 µM,0.732
same,relative viability,NCI-H727; first compound 6.325 µM,0.968
same,relative viability,NCI-H727; first compound 20 µM,0.439
